Reference: patent US8338472B2, “Hexahydrocyclopentyl[F]indazole carboxamides and derivatives thereof as selective glucocorticoid receptor modulators” (Merck Sharp & Dohme Corp., priority 2008, dated 2012)
Like-named read-outs stand apart in the source and are kept apart here.

How the values were obtained:
[1] = target: T1, glucocorticoid receptor (GR) (Homo sapiens, UniProt P04150); experiment: Ligand binding assay (GR BIND), 3H-dexamethasone displacement in MDA-MB-453 cell lysate
T1 sequence (P04150 1-777): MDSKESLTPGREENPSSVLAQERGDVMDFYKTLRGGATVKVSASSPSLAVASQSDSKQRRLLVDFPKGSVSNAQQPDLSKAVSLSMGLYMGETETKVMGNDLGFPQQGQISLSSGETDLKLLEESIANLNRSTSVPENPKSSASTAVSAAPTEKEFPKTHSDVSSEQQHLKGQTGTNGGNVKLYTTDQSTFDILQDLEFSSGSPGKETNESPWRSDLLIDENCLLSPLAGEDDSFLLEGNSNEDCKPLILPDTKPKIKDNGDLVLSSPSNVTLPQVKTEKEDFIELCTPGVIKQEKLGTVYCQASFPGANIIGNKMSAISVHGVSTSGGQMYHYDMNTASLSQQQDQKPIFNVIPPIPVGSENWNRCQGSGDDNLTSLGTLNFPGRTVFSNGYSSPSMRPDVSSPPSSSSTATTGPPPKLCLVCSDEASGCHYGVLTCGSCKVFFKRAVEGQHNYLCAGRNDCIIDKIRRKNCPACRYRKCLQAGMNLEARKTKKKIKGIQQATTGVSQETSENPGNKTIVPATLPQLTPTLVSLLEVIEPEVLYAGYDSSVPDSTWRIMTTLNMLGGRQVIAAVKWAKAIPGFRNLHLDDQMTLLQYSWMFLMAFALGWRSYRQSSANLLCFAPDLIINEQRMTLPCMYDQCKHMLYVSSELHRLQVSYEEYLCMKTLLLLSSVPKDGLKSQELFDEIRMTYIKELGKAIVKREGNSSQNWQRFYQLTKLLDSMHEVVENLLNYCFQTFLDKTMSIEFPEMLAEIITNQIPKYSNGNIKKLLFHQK

human GR = target: T2, human GR (Homo sapiens, UniProt P04150); experiment: Transrepression Assay (GITAR), TNFα-β-lactamase reporter gene in U937 cells; assay type: cell-based; conditions: for EC50: inflection point, read-out: Transrepression U937 Cells GITAR IP; for Transrepression U937 Cells GITAR Emax / EC50: U937 cells
T2 construct: U937 cells contain an endogenous glucocorticoid receptor (GR); endogenous in cells; host or cells: U937 cells stably transfected with the TNF-alpha promoter/beta-lactamase reporter
T2 sequence (P04150 1-777): T1 sequence (P04150 1-777)
Summary of the method: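 Repression of PMA (5 ng/ml final)/LPS (100 ng/ml final)-induced TNF-α promoter activity, read as β-lactamase cleavage of CCF2-AM, in stably transfected U937 cells expressing native GR. Compound added 30-45 min before stimulation, overnight (~18 hr) 37° C; normalized to 100 nM dexamethasone (100%).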

Glucocorticoid Receptor = target: T3, Glucocorticoid Receptor (Homo sapiens, UniProt P04150); experiment: Trans-Activation Modulation of Glucocorticoid Receptor (GRAMMER), MMTV-LUC reporter gene in A549 cells; assay type: cell-based; conditions: for Transactivation A549 Cells GRAMMER Emax / Emax: Emax relative to 300 nM dexamethasone; for EC50: inflection point, read-out: Transactivation A549 Cells GRAMMER IP; for Transactivation A549 Cells GRAMMER Emax / EC50: A549 cells; for Emax: A549, A549 cells, read-out: Transactivation A549 Cells GRAMMER Emax
T3 construct: These cells express large amount of the GR and are very responsive to GC treatment; endogenous in cells; host or cells: A549 cells transiently transfected with the MMTV-LUC reporter
T3 sequence (P04150 1-777): T1 sequence (P04150 1-777)
Summary of the method: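 Luciferase from a transiently transfected MMTV-LUC reporter was measured after 24 h compound exposure (≤1% DMSO) in A549 or MDA-MB-453 cells. For antagonism, the decrease of 10 nM dexamethasone-induced signal was calculated. For agonism, Emax was referenced to 300 nM dexamethasone.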

[2] = GITAR Emax minus GRAMMER Emax, Table 1
[3] = activity repressed by 100 nM dexamethasone = 100%, Table 1
[4] = U-937, text statement, 100 nM dexamethasone = 100%, read-out: maximal activity in the transrepression assay (GITAR)
[5] = U-937, U937 cells, activity repressed by 100 nM dexamethasone = 100%, Table 1, read-out: Transrepression U937 Cells GITAR Emax
[6] = compounds in the art (WO03/086294)

Row | Ki ([1]; GR BIND Ki, Table 1) [nM] | GITAR Greater than by GRAMMER % SEP (human GR; [2]) [%] | Transrepression U937 Cells GITAR Emax (human GR; [3]) [%] | Emax (human GR; [4]) [%] | EC50 (human GR; Table 1) [nM] | Transactivation A549 Cells GRAMMER Emax (Glucocorticoid Receptor; Table 1) [%] | EC50 (Glucocorticoid Receptor; Table 1) [nM] | Emax (human GR; [5]) [%] | Emax (Glucocorticoid Receptor; Table 1) [%] | Ki ([1]; GR BIND Ki, compounds in the art (WO03/086294)) [nM] | GITAR > GRAMM % SEP (human GR; GITAR Emax minus GRAMMER Emax, compounds in the art) [%] | Emax (human GR; U-937, U937 cells, activity repressed by 100 nM dexamethasone = 100%, compounds in the art, read-out: Transrepression U937 Cells GITAR Emax) [%] | EC50 (human GR; [6]) [nM] | Emax (Glucocorticoid Receptor; compounds in the art) [%] | EC50 (Glucocorticoid Receptor; [6]) [nM] | Compound | Ki ([1]; read-out: GR BIND Ki, Table 1) [nM]
1 | 0.8 | 23.1 | 61.1 | > 5 | 232 | 38.0 | 287 | – | – | – | – | – | – | – | – | C[C@]12Cc3cnn(-c4ccc(F)cc4)c3C=C1CC[C@@H]2C(=O)N(CCc1ccccc1F)CC(O)CC(F)(F)F (stereo partly drawn) [Compound 87, (4αR,5S)-1-(4-fluorophenyl)-N-[2-(2-fluorophenyl)ethyl]-4α-methyl-N-(4,4,4-trifluoro-2-hydroxybutyl)-1,4,4α,5,6,7-hexahydrocyclopenta[f]indazole-5-carboxamide] | –
2 | 1.1 | 5.9 | 67.5 | – | 172 | 61.7 | 277 | – | – | – | – | – | – | – | – | C[C@]12Cc3cnn(-c4ccc(F)cc4)c3C=C1CC[C@@H]2C(=O)N(CCc1ccccc1F)CC(O)C(F)(F)F (stereo partly drawn) [Compound 93, (4αR,5S)-1-(4-fluorophenyl)-N-[2-(2-fluorophenyl)ethyl]-4α-methyl-N-(3,3,3-trifluoro-2-hydroxypropyl)-1,4,4α,5,6,7-hexahydrocyclopenta[f]indazole-5-carboxamide] | –
3 | 1.8 | 8.0 | – | – | 531 | – | 363 | 51.8 | 43.8 | – | – | – | – | – | – | C[C@]12Cc3cnn(-c4ccc(F)cc4)c3C=C1CC[C@@H]2C(=O)N(CCc1ccccc1F)CC(O)CC(F)(F)F (stereo partly drawn) [Compound 94, (4αR,5S)-l-(4-fluorophenyl)-N-[2-(2-fluorophenyl)ethyl]-4α-methyl-N-(4,4,4-trifluoro-2-hydroxybutyl)-1,4,4α,5,6,7-hexahydrocyclopenta[f]indazole-5-carboxamide] | –
4 | 1 | 7.3 | 54.2 | – | 282 | 46.9 | 374 | – | – | – | – | – | – | – | – | C[C@]12Cc3cnn(-c4ccc(F)cc4)c3C=C1CC[C@@H]2C(=O)N(CCc1ccccc1F)CC(O)CC(F)(F)F (stereo partly drawn) [Compound 95, (4αR,5S)-1-(4-fluorophenyl)-N-[2-(2-fluorophenyl)ethyl]-4α-methyl-N-(4,4,4-trifluoro-2-hydroxybutyl)-1,4,4α,5,6,7-hexahydrocyclopenta[f]indazole-5-carboxamide] | –

Second part, the compound before the results:

Row | Compound | Ki ([1]; GR BIND Ki, Table 1) [nM] | GITAR Greater than by GRAMMER % SEP (human GR; [2]) [%] | Transrepression U937 Cells GITAR Emax (human GR; [3]) [%] | Emax (human GR; [4]) [%] | EC50 (human GR; Table 1) [nM] | Transactivation A549 Cells GRAMMER Emax (Glucocorticoid Receptor; Table 1) [%] | EC50 (Glucocorticoid Receptor; Table 1) [nM] | Emax (human GR; [5]) [%] | Emax (Glucocorticoid Receptor; Table 1) [%] | Ki ([1]; GR BIND Ki, compounds in the art (WO03/086294)) [nM] | GITAR > GRAMM % SEP (human GR; GITAR Emax minus GRAMMER Emax, compounds in the art) [%] | Emax (human GR; U-937, U937 cells, activity repressed by 100 nM dexamethasone = 100%, compounds in the art, read-out: Transrepression U937 Cells GITAR Emax) [%] | EC50 (human GR; [6]) [nM] | Emax (Glucocorticoid Receptor; compounds in the art) [%] | EC50 (Glucocorticoid Receptor; [6]) [nM] | Ki ([1]; read-out: GR BIND Ki, Table 1) [nM]
5 | CCCN(CCC(F)(F)F)C(=O)[C@H]1CCC2=Cc3c(cnn3-c3ccc(F)cc3)C[C@@]21C [Compound 88, (4αR,5S)-1-(4-fluorophenyl)-4α-methyl-N-propyl-N-(3,3,3-trifluoropropyl)-1,4,4α,5,6,7-hexahydrocyclopenta[f]indazole-5-carboxamide] | 2.2 | 5.9 | – | > 5 | 234 | – | 371 | 73.9 | 68 | – | – | – | – | – | – | –
6 | CO[C@H](C)CN(C)C(=O)[C@H]1CCC2=Cc3c(cnn3-c3ccc(F)cc3)C[C@@]21C [Compound 89, (4αR,5S)-1-(4-fluorophenyl)-N-[(2R)-2-methoxypropyl]-N,4α-dimethyl-1,4,4α,5,6,7-hexahydrocyclopenta[f]indazole-5-carboxamide] | 120 | 6.5 | – | > 5 | 3450 | – | 492 | 10.2 | 3.7 | – | – | – | – | – | – | –
7 | CN(CCC(F)(F)F)C(=O)[C@H]1CCC2=Cc3c(cnn3-c3ccc(F)cc3)C[C@@]21C [Compound 90, (4αR,5S)-1-(4-fluorophenyl)-N,4α-dimethyl-N-(3,3,3-trifluoropropyl)-1,4,4α,5,6,7-hexahydrocyclopenta[f]indazole-5-carboxamide] | 17.3 | 24.2 | – | > 5 | 609 | – | 565 | 44.5 | 20.3 | – | – | – | – | – | – | –
8 | CCN(CCC(F)(F)F)C(=O)[C@H]1CCC2=Cc3c(cnn3-c3ccc(F)cc3)C[C@@]21C [Compound 91, (4αR,5S)-N-ethyl-1-(4-fluorophenyl)-4α-methyl-N-(3,3,3-trifluoropropyl)-1,4,4α,5,6,7-hexahydrocyclopenta[f]indazole-5-carboxamide] | 4.5 | 30.6 | – | > 5 | 333 | – | 312 | 75.1 | 44.5 | – | – | – | – | – | – | –
9 | C[C@]12Cc3cnn(-c4ccc(F)cc4)c3C=C1CC[C@@H]2C(=O)N(CCc1ccccc1F)CC(O)C(F)(F)F (stereo partly drawn) [Compound 92, (4αR,5S)-1-(4-fluorophenyl)-N-[2-(2-fluorophenyl)ethyl]-4α-methyl-N(3,3,3-trifluoro-2-hydroxypropyl)-1,4,4α,5,6,7-hexahydrocyclopenta[f]indazole-5-carboxamide] | 1.5 | 4.7 | 44.9 | – | 143 | 40.2 | 285 | – | – | – | – | – | – | – | – | –
10 | C[C@]12Cc3cnn(-c4ccc(F)cc4)c3C=C1CC[C@@H]2C(=O)NCc1ccccc1 [reference compound] | – | – | – | – | – | – | – | – | – | 21.1 | -59.6 | 43.8 | 4280 | 103 | 502 | –
11 | (4αR,5S)-N,N-dibutyl-1-(4-fluorophenyl)- 4α-methyl-1,4,4α,5,6,7- hexahydrocyclopenta[f]indazole-5- carboxamide [Compound 9] | – | 15.9 | 54.4 | – | 497 | 38.5 | 360 | – | – | – | – | – | – | – | – | 1
